Test [1] relates to Peritoneal macrophage cell. The test can be described thus: Induction of intracellular […] production in promastigotes of Leishmania amazonensis MHOM/BR/75/LTB0016 infected Swiss mouse peritoneal macrophages after 72 hrs by spectrofluorometric analysis. In kind it is functional, cell-based.
Test [2] concerns Leishmania amazonensis. The test can be described thus: Antileishmanial activity against promastigotes of Leishmania amazonensis MHOM/BR/75/LTB0016 infected in Swiss mouse peritoneal macrophages assessed as reduction of infection index after 72 hrs. The class given is functional, organism-based.
Test [3] deals with Leishmania amazonensis. The test can be described thus: Antileishmanial activity against promastigotes of Leishmania amazonensis MHOM/BR/75/LTB0016 infected in Swiss mouse peritoneal macrophages assessed as parasite growth inhibition at 12 uM after 72 hrs. Conditions: MHOM/BR/75/LTB0016, 72 h, read-out: GI. In kind it is functional.
The test system of test [4] is Peritoneal macrophage cell. The test can be described thus: Induction of intracellular […] production in Swiss mouse peritoneal macrophages up to 12 uM after 72 hrs by spectrofluorometric analysis. The class given is functional, cell-based.
Test [5] in a line: Cytotoxicity against Swiss mouse peritoneal macrophages after 72 hrs by AlamarBlue assay. The note with it: Peritoneal macrophage cell. In kind it is cell-based. (In general: Alamar Blue is a resazurin reagent that responds to reducing activity.)
The test system of test [6] is Peritoneal macrophage cell. The test can be described thus: Induction of intracellular […] production in promastigotes of Leishmania amazonensis MHOM/BR/75/LTB0016 infected Swiss mouse peritoneal macrophages at 12 uM after 72 hrs by spectrofluorometric analysis relative to control. The class given is functional.
The nature of test [7]: Selectivity index, ratio of IC50 for Swiss mouse peritoneal macrophages to IC50 for promastigotes of Leishmania amazonensis MHOM/BR/75/LTB0016.
For test [8], the system named is Leishmania amazonensis. The test can be described thus: Antileishmanial activity against Leishmania amazonensis after 72 hrs. The class given is functional, organism-based.

Molecules are shown by their SMILES. Calls of active or inactive are those of the source. The calls are words filed in the database; no cut-off is given here.

What is called IC50 is the midpoint of a concentration-inhibition curve. `O=c1c(O)c(-c2ccc(O)c(O)c2)oc2cc(O)cc(O)c12` [QUERCETIN]: the Activity result in test [1] is “Dose-dependent effect”. The inhibition entry in the test with Leishmania amazonensis [2] is “Dose-dependent effect”. Also, the IC50 amounted to 3.4 µM in the test on Leishmania amazonensis [2] (MHOM/BR/75/LTB0016, 72 h) and 80.2 µM in test [5]. Moreover, the inhibition of growth at 12 µM in the test with Leishmania amazonensis [3] amounted to 74.8%. Moreover, the result in test [4] was inactive. Also, the “fold change (FC)” value in test [6] was 1.5. In addition, the “Ratio IC50” value in test [7] stood at 16.8.

With `CCCCCCCCCCCCCCCCOP(=O)([O-])OCC[N+](C)(C)C` [MILTEFOSINE], the IC50 in the test on Leishmania amazonensis [8] turned out to be 3.2 µM.

The values are drawn from ChEMBL document CHEMBL2406940, “Reactive oxygen species production by quercetin causes the death of Leishmania amazonensis intracellular amastigotes” (J Nat Prod, 2013).
